Patent publication US6437157B1, “20-substituted steroids” (Hoechst Marion Roussel, priority 1994, dated 2002)

How the values were obtained:
Sigma receptor [1] = experiment: Sigma receptor relative bond affinity (RBA), 3H PPP displacement, rat brain membranes; format: binding; conditions: for Relative bond affinity (RBA) for the Sigma receptor, Brain (rat): 3 nM 3H PPP, haloperidol set equal to 100; for Displacement of 3H PPP from the Sigma receptor (in words): also evaluated on testicles
Method: (§1) The relative bond affinity was evaluated for preparations of rat brain and testicle membranes.
(§2) Male Sprague-Dawley rats originating from Iffa Credo and weighing approximately 200 g were used. The animals were scarified by decapitation and the brain and testicles were removed and homogenized in 10 to 25 volumes of 50 mM Tris-HCl buffer (pH 7.7) at 4° C. using an Ultrathurax. The homogenates were centrigued at 30,000 g for 15 minutes at 4° C. and the pellets were washed 3 times by resuspension in the same buffer and centrifugation under the same conditions. The membranes obtained in this way were stored at −80° C.
(§3) The marker of the sigma receptors used was ^3H PPP (propyl-3-(propyl-3-(3-hydroxyphenyl)-piperidine) of NEN having a specific activity of 3404 GBq/mmol. The membranes were suspended in the 50 mM Tris-HCl buffer, pH 8.0 to obtain a concentration of proteins of approximately 0.6 mg/ml for the testicles and 1 mg/ml for the brain. Aliquots of the homogenate were incubated for 90 minutes at 25° C. in a total volume of 0.5 ml with 3 nM of ^3H PPP in the presence of increasing concentrations of reference product (haloperidol) or of the products to be tested. At the end of the incubation, the 3H PPP bound to the membranes was separated from the free ^3H PPP by rapid filtration on Whatman GF/C filters pre-treated beforehand with 0.05% of polyethyleneimine. The precipitate was washed twice with 5 ml of Tris-HCl buffer and the radioactivity was counted after the addition of 20 ml of Aqualyte scintillating liquid (Baker).
(§4) The following two curves were drawn: percentage of bound tritiated marker 100×B/BO as a function of the logarithm of the concentration of unlabelled reference product or as a function of the logarithm of the concentration of unlabelled test product. The straight line of the following equation was determined:
(§5) BO=concentration of the bound tritiated marker in the absence of any unlabelled product.
B=concentration of the bound tritiated marker in the presence of a concentration X of unlabelled product.
Bmin=concentration of the bound tritiated marker in the presence of a large excess of the unlabelled reference product (5,000 nM).
The intersections of the straight line I50 and the curves allowed the evaluation of the concentrations of the unlabelled reference product (CH) and of the unlabelled test product (CX) which inhibited by 50% the specific binding of the tritiated marker on the receptor. The relative bond affinity (RBA) of the test product was determined by the equation:
The RBA of the haloperidol was arbitrarily set equal to 100.

human spermatozoids = experiment: Measurement of intracellular calcium in human spermatozoids (Fura2-AM fluorescence); format: cell-based
Method: The human sperm originated from healthy donors. […] The mobile spermatozoids were incubated for a minimum of 2 hours in the BWW/HSA capacitating medium and were then incubated at a concentration of 5-10×10^6/ml with Fura2-AM to a final concentration 2 μM at 37° C. for 45 minutes. After washing by centrifugation at 600 g for 10 minutes in. BWW without HSA, the spermatozoids were suspended at a concentration of 4×10^6/ml. The florescence signal was measured at 37° C. using a spectrofluorimeter at excitation wave lengths of 340 and 380 nm (PTIM 2001-Kontron) or at 340, 360 and 380 nm (Hitachi F 2000—B. Braun Science Tec.). The fluorescence emission was recorded at 505 nm. The progesterone or the products to be tested, dissolved in absolute ethanol, were added to the incubation medium at a final concentration of 0.1% of ethanol. When an antagonistic effect of the progesterone was sought, the product was added to the medium 2 minutes before the progesterone. At the end of the each dosage, 5 μM of ionomycin were added to the sample to measure the maximum fluorescence signal. […] These values allowed the intracellular concentration of calcium ([Ca^2+]i) to be calculated by the method described by Grunkiewicz et al. 1985, J. Biol. Chem., Vol. 260, pp. 3440-3450).

Sigma receptor [2] = experiment: Sigma receptor relative bond affinity (RBA), 3H PPP displacement, rat testicle membranes; format: binding; conditions: 3 nM 3H PPP, haloperidol set equal to 100
Method: as §1, §2, §3, §4, §5
B=concentration of the bound tritiated marker in the presence of a concentration X of unlabelled product. […]

**Q.** Which “Relative bond affinity (RBA) for the Sigma receptor, Brain (rat)” value (Sigma receptor [1]) does the source give for `C[C@H](NCCN(C)C)[C@@H]1CC[C@@H]2[C@H]3CCc4cc(O)ccc4[C@@H]3CC[C@]21C` [Example 1, (20S)(8α,9β,13α,14β,17α) 20-((dimethylamino)-ethyl)-amino-19-nor-Δ^1,3,5(10)-pregnatrien-3-ol] here?
**A.** 4.3

**Q.** What about the “Displacement of 3H PPP from the Sigma receptor (in words)” value (Sigma receptor [1]) of the same molecule?
**A.** capable of displacing ^3H PPP

**Q.** And the “[Ca2+]i relative to the basal level set equal to 1” value (human spermatozoids; 2 minutes pre-treatment with U 10^-5M + PROG. 10^-5M, Mean±SEM n=3)?
**A.** 1.0 ± 0.0

**Q.** And the “[Ca2+]i relative to the basal level set equal to 1” value (human spermatozoids; 2 minutes pre-treatment with U 10^-6M + PROG. 10^-5M, Mean±SEM n=3)?
**A.** 2.63 ± 0.57

**Q.** What about the “[Ca2+]i relative to the basal level set equal to 1” value (human spermatozoids; 2 minutes pre-treatment with U 10^-7M + PROG. 10^-5M, Mean±SEM n=3) of the same molecule?
**A.** 4.26 ± 1.93

**Q.** And the “[Ca2+]i relative to the basal level set equal to 1” value (human spermatozoids; 2 minutes pre-treatment with U 10^-8M + PROG. 10^-5M, Mean±SEM n=3)?
**A.** 3.33 ± 0.87

**Q.** What about the “[Ca2+]i relative to the basal level set equal to 1” value (human spermatozoids; Pre-treatment 2 mn with U 10^-5M + PROG. 10^-5M, Mean±SEM n=8) of the same molecule?
**A.** 0.95 ± 0.05

**Q.** And the “Antagonistic effect on the progesterone-induced [Ca2+]i increase (in words)” value (human spermatozoids; Product U 10^-5M added 2 minutes before the progesterone)?
**A.** completely antagonized the effect of progesterone

**Q.** And the “[Ca2+]i relative to the basal level set equal to 1” value (human spermatozoids; U 10^-5M alone, Mean±SEM n=8)?
**A.** 0.95 ± 0.05

**Q.** What about the “Relative bond affinity (RBA) for the Sigma receptor, Testicle (rat)” value (Sigma receptor [2]) of the same molecule?
**A.** 58.0

**Q.** What does the source list for `CC(=O)[C@H]1CC[C@H]2[C@@H]3CCC4=CC(=O)CC[C@]4(C)[C@H]3CC[C@]12C` [Progesterone, reference compound]?
**A.** Relative bond affinity (RBA) for the Sigma receptor, Brain (rat) (Sigma receptor [1]): 0.7; Displacement of 3H PPP from the Sigma receptor (in words) (Sigma receptor [1]): capable of displacing ^3H PPP; [Ca2+]i relative to the basal level set equal to 1 (human spermatozoids; PROG. 10^-5M alone, Mean±SEM n=3): 3.67 ± 0.97; [Ca2+]i relative to the basal level set equal to 1 (human spermatozoids; PROG. 10^-5M alone, Mean±SEM n=8): 5.76 ± 0.84; Effect on the intracellular calcium of human spermatozoids (in words) (human spermatozoids; progesterone 10^-5 M alone): induced a transitory increase of the [Ca^2+]i; Relative bond affinity (RBA) for the Sigma receptor, Testicle (rat) (Sigma receptor [2]): 0.3

**Q.** For `O=C(CCCN1CCC(O)(c2ccc(Cl)cc2)CC1)c1ccc(F)cc1` [Haloperidol], which “Relative bond affinity (RBA) for the Sigma receptor, Brain (rat)” value (Sigma receptor [1]) is on record?
**A.** 100.0

**Q.** And the “Relative bond affinity (RBA) for the Sigma receptor, Testicle (rat)” value (Sigma receptor [2])?
**A.** 100.0
